Test results from ChEMBL document CHEMBL2331215, “Discovery of novel N-substituted oxindoles as selective m1 and m4 muscarinic acetylcholine receptors partial agonists” (ACS Med Chem Lett, 2013).
Active and inactive are the calls of the source. The calls are words filed in the database; no cut-off is given here.

Experiments:
[1] = tested on: Rattus norvegicus; assay: Antipsychotic activity in Sprague-Dawley rats assessed as reversal of methamphetamine-induced hyperlocomotion at 0.6 mg/kg, sc administered 30 mins prior to methamphetamine injection measured for 80 mins from 10 mins after methamphetamine challenge in presence of 0.6 mg/kg, po risperidone; format: functional, organism-based
[2] = tested on: Cynomolgus monkey; assay: Induction of miosis in sc dosed cynomolgus monkey; format: organism-based, Macaca fascicularis; settings: in vivo
[3] = target: Voltage-gated inwardly rectifying potassium channel KCNH2 (Homo sapiens, UniProt Q12809); assay: Inhibition of human ERG assessed as decrease in tail current amplitude measured after 5 mins by whole cell patch clamp technique
Voltage-gated inwardly rectifying potassium channel KCNH2, sequence (Q12809 whole entry): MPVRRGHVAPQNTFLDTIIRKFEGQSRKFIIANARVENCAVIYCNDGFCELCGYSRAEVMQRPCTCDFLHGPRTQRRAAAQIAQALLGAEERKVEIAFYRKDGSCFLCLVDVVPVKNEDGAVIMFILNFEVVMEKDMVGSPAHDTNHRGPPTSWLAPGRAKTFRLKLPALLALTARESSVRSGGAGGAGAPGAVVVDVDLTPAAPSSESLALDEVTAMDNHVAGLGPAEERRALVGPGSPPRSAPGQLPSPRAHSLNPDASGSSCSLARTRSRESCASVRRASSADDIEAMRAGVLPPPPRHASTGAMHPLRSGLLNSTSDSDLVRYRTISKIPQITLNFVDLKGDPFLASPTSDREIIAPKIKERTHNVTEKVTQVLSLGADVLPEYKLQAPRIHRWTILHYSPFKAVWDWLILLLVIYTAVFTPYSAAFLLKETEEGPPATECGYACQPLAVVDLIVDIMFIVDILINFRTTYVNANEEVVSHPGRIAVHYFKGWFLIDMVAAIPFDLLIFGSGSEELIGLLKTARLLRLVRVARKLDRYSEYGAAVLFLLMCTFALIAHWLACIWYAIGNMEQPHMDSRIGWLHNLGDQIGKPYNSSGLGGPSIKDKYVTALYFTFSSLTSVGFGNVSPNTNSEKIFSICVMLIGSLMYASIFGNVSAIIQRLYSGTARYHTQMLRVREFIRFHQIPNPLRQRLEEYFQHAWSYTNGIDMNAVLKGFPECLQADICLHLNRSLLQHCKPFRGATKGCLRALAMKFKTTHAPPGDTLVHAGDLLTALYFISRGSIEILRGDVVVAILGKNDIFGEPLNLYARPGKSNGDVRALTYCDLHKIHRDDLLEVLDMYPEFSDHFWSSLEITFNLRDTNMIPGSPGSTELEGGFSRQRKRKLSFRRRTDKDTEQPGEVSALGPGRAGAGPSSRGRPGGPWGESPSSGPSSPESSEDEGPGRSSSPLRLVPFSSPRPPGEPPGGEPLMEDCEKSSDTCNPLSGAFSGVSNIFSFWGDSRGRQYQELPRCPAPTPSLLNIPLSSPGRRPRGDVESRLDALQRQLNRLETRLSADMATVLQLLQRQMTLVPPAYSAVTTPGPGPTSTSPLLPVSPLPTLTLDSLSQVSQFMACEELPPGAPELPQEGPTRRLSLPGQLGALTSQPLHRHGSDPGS

[4] = target: T1, Muscarinic acetylcholine receptor M4 (Homo sapiens, UniProt P08173); assay: (§1) Partial agonist activity at human M4 receptor co-expressed with Galpha16 in CHO cells assessed as calcium mobilization after 60 mins by FLIPR assay; format: functional, cell-based
T1 sequence (P08173 whole entry): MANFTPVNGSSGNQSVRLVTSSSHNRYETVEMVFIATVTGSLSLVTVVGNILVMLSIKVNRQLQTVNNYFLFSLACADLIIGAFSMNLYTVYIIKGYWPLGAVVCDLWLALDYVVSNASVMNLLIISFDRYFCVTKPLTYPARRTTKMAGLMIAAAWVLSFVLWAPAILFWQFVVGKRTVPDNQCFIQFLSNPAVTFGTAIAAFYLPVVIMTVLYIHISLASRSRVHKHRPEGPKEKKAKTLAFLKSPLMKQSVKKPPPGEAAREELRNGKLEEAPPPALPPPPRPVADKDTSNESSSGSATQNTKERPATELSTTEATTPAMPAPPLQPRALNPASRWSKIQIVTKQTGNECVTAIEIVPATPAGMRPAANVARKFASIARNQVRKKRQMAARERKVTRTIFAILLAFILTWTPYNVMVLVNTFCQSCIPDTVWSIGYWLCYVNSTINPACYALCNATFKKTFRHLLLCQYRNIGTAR

[5] = target: T2, Muscarinic acetylcholine receptor M4 (Homo sapiens) (UniProt P08173); assay: as §1; format: functional, cell-based
T2 sequence (whole entry): T1 sequence (P08173 whole entry)

[6] = tested on: Cynomolgus monkey; assay: Cardiotoxicity in telemetered cynomolgus monkey assessed as prolongation of QTc interval at 1.5 to 6 mg/kg, sc measured after 1 to 4 hrs by telemetry method; format: toxicity, organism-based, Macaca fascicularis; set-up: route subcutaneous; settings: in vivo

CCOC(=O)N1[C@@H]2CC[C@H]1C[C@H](CN1CC[C@H](N3C(=O)Cc4ccccc43)C1)C2
inhibition [1]: Active
Activity [2]: Toxic
IC50 [3]: 2400 nM
EC50 [4]: 29 nM
Intrinsic activity [5]: 42%
Activity [6]: Non-toxic
